In patent US12509424B2, “Compound and composition as PDGF receptor kinase inhibitor” (NIPPON SHINYAKU CO., LTD., priority 2019, dated 2025):
pIC50: −log10 of the molar value. Read-outs that look alike come from different tables or passages of the source.

Key:
PDGFR-β = PDGFR-β (Homo sapiens (Human), UniProt P09619); test: PDGFR-β tyrosine kinase inhibitory action (HTRF KinEASE-TK); type: biochemical; conditions: PDGFR-β enzyme 1 ng/μL, 30° C. for 30 minutes; read-out: PDGF-β IC50
Outline: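 Recombinant PDGFR-β at 1 ng/μL final with TK substrate-3-biotin in a substrate solution containing 0.6 μM ATP; buffer 50 mM HEPES pH 7.0, 5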

[1] = molecular target: TEL-PDGFRβ fusion gene transfected cells (Ba/F3); test: Suppression of proliferation of TEL-PDGFRβ fusion gene transfected Ba/F3 cells; type: cell-based, human; conditions: TEL-PDGFRβ expressing Ba/F3 cells, 72 hours, final concentration 0.1 to 10,000 nM; read-out: PDGFR β/BaF3 proliferation inhibition (IC50)
Chain of TEL-PDGFRβ fusion gene transfected cells (Ba/F3) (P09619 33-1106 limits assumed, change not shown): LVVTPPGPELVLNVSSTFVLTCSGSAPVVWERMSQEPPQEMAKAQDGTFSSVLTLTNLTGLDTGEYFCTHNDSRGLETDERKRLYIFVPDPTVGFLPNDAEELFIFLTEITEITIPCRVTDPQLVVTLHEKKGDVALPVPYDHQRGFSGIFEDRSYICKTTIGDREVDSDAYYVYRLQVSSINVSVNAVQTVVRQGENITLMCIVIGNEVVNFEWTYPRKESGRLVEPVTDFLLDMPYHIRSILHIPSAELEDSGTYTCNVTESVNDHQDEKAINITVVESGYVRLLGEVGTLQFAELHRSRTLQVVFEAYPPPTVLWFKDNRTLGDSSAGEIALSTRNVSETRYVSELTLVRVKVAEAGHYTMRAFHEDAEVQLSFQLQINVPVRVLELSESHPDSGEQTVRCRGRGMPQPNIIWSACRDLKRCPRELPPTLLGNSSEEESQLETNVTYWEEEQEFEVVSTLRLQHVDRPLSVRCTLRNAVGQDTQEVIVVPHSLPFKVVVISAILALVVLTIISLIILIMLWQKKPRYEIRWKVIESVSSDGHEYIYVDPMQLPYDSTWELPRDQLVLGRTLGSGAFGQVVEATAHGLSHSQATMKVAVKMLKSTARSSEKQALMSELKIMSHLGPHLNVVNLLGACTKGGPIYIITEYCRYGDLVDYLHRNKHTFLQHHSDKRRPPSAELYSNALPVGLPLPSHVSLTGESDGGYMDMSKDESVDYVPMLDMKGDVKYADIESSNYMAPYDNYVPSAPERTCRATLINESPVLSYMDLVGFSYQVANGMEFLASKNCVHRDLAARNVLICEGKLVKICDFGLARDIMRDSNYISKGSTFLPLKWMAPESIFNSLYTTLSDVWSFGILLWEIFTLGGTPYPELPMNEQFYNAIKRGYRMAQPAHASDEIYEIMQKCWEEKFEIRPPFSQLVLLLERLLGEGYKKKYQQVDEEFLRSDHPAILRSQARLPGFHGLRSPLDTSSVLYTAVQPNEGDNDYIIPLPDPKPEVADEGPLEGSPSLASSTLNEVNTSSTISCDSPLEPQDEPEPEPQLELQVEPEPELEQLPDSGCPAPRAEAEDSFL
From the text: 2. Preparation of Test Substance
4. Analysis of Measurement Results

[2] = tested on: pulmonary arterial smooth muscle cells; test: Suppression of proliferation of pulmonary arterial smooth muscle cells (PDGF-BB stimulation, BrdU); type: cell-based; conditions: PASMC, read-out: Human normal PASMC proliferation suppression (PDGF stimulation_IC50)
Outline: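 Test compound (final 3 to 10,000 nM) was added together with BrdU and PDGF-BB (final 10 ng/mL) to healthy human pulmonary artery smooth muscle cells held a day in 0.1% FBS. Proliferation was read after 1 day as anti-BrdU-detected BrdU incorporation.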

[3] = molecular target: TEL-KIT fusion gene transfected cells (Ba/F3); test: Suppression of proliferation of TEL-KIT fusion gene transfected Ba/F3 cells; conditions: read-out: KIT/BaF3 proliferation inhibition (IC50); TEL-KIT expressing Ba/F3 cells, 72 hours, final concentration 0.1 to 10,000 nM;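 note: viable cells quantified via formazan from tetrazolium reduction, inhibition scaled with 0.1% DMSO control as 0% and medium-only blank as 100%, IC50 from two-parameter logistic fit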
Chain of TEL-KIT fusion gene transfected cells (Ba/F3) (P10721 26-976 limits assumed, change not shown): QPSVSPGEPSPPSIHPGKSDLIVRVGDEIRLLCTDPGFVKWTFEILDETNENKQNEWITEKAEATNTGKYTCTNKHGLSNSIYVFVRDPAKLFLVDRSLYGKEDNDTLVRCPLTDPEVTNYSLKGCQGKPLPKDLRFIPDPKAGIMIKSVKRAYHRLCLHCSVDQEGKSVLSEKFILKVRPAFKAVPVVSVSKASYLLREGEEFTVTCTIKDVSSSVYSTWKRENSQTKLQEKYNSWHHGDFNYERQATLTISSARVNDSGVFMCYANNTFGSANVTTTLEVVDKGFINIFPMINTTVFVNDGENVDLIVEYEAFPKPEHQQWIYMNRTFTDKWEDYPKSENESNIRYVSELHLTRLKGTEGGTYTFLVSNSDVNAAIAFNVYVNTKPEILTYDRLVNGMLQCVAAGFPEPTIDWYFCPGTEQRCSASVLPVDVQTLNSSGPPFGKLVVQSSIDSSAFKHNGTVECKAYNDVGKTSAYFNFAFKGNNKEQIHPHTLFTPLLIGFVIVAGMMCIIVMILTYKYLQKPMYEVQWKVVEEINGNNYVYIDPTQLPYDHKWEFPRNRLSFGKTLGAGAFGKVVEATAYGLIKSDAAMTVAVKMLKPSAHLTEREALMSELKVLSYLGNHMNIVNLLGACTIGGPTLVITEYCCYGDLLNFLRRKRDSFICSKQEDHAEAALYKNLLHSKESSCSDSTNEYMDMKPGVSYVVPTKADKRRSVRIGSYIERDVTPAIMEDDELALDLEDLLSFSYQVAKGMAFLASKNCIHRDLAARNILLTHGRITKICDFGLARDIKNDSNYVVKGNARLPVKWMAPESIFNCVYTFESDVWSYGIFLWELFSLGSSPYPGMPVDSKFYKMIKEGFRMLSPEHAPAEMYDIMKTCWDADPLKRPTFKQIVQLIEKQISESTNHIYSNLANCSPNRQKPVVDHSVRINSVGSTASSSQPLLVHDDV
From the text: Fabrication of TEL-PDGFRβ and TEL-KIT Fusion Gene Transfected Cells
Subsequently, the vectors for gene transfection were introduced using a transfection reagent (FuGENE6, Promega Corporation) into packaging cells derived from a human fetal kidney cell line, PLAT-E, in the logarithmic growth phase. Since the culture supernatant of PLAT-E after the gene transfection contained virus particles for gene transfection, it was collected and used as a medium for gene transfection. The medium for gene transfection was added to a plate coated with RetroNectin and incubated, and the virus particles were allowed to adhere to the plate. Thereafter, the mouse pro-B cell line Ba/F3 in the logarithmic growth phase was seeded onto the plate and infected with the virus to fabricate cells that proliferate in a PDGFRβ or KIT dependent manner.
The test substance was prepared with dimethyl sulfoxide (DMSO) to 10 mM and diluted with DMSO so as to reach a concentration of 0.0001 to 3 mM. Furthermore, it was diluted by 100 times with distilled water.
Measurement of Suppression Action Against Proliferation of TEL-PDGFRβ or TEL-KIT Expressing Cells
The day after TEL-PDGFRβ and TEL-KIT expressing cells were seeded onto 96 well plates, the prepared test substance solution was added thereto with a final concentration being 0.1 to 10,000 nM. After 72 hours, the viable cell count was measured using the amount of formazan generated from the reduction of a tetrazolium salt compound by the mitochondrial dehydrogenase of viable cells as an indicator.
Based on the amount of formazan in each condition, the suppression rate against cell proliferation was calculated when the amounts of formazan in the negative control (0.1% DMSO solution) and Blank (medium only) were defined as 0% and 100%, respectively. Subsequently, a nonlinear regression analysis with a two parameter logistic model for the log dose and suppression rate against cell proliferation was carried out using the SAS system (SAS Institute Inc.) to estimate the IC50 value.

[4] = 24 h, healthy human derived pulmonary arterial smooth muscle cells, human PDGF-BB 10 ng/mL stimulation, BrdU uptake after 1 day, test substance final concentration 3 to 10,000 nM
[5] = human PDGF-BB 10 ng/mL, BrdU uptake, final concentration 3 to 10,000 nM

Chain of PDGFR-β (P09619 33-1106): as the sequence (P09619 33-1106 limits assumed, change not shown) above

Structure (SMILES)	pIC50 (PDGFR-β)	pIC50 [1]	pIC50 [2, 4]	pIC50 [3]	pIC50 [2, 5]
Cc1ccc(C(=O)N[C@H]2CCCC[C@@H]2O)cc1NCc1cncc(-c2ccccc2)n1 [Example 101, N-[(1S,2S)-2-hydroxycyclohexyl]-4-methyl-3-{[(6-phenylpyrazin-2-yl)methyl]amino}benzamide]	6.77	7.25	7.15	5.05	
Cc1ccc(C(=O)N[C@H]2CCCC[C@@H]2O)cc1NC(=O)c1cnc(NCCC2CC2)s1 [Example 26, 2-[(2-cyclopropylethyl)amino]-N-(5-{[(1S,2S)-2-hydroxycyclohexyl]carbamoyl}-2-methylphenyl)-1,3-thiazole-5-carboxamide]	8.34	8.03		6.34	7.60
Cc1ccc(C(=O)N[C@H]2CCCC[C@@H]2O)cc1NC(=O)c1cnc(NC2(C)CC2)s1 [Example 39, N-(5-{[(1S,2S)-2-hydroxycyclohexyl]carbamoyl}-2-methylphenyl)-2-[(1-methylcyclopropyl)amino]-1,3-thiazole-5-carboxamide]	7.00	7.89	6.82	6.00	
Cc1ccc(C(=O)N[C@H]2CCCC[C@@H]2O)cc1NC(=O)c1cncc(N(C)C2CC2)c1 [Example 17, 5-[cyclopropyl(methyl)amino]-N-(5-{[(1S,2S)-2-hydroxycyclohexyl]carbamoyl}-2-methylphenyl)pyridine-3-carboxamide]	7.38	8.00		6.10	6.89
Cc1ccc(C(=O)N[C@H]2CCCC[C@@H]2O)cc1Nc1ccnc(-c2cncc3ccccc23)n1 [Example 79, N-[(1S,2S)-2-hydroxycyclohexyl]-3-{[2-(isoquinolin-4-yl)pyrimidin-4-yl]amino}-4-methylbenzamide]	6.92	7.34	6.77	5.70	
Cc1ccc(C(=O)N[C@H]2CCCC[C@@H]2O)cc1C#Cc1cncc(C2CC2)n1 [Example 68, 3-[(6-cyclopropylpyrazin-2-yl)ethynyl]-N-[(1S,2S)-2-hydroxycyclohexyl]-4-methylbenzamide]	7.10	7.80	7.14	5.70	
Cc1ccc(C(=O)N[C@@H](CO)[C@@H](O)c2ccccc2)cc1CNc1cncc(C2CC2)c1 [Example 154, 3-{[(5-cyclopropylpyridin-3-yl)amino]methyl}-N-[(1S,2S)-1,3-dihydroxy-1-phenylpropan-2-yl]-4-methylbenzamide]	6.47	6.64	7.01	< 5.00	
Cc1ccc(C(=O)N[C@H]2CCCC[C@@H]2O)cc1NCc1cncc(-c2cnccn2)c1 [Example 115, N-[(1S,2S)-2-hydroxycyclohexyl]-4-methyl-3-({[5-(pyrazin-2-yl)pyridin-3-yl]methyl}amino)benzamide]	6.59	8.85	6.54	5.77	
Cc1ccc(C(=O)N[C@H]2CCCC[C@@H]2O)cc1NCc1cnn(-c2ccccn2)c1 [Example 112, N-[(1S,2S)-2-hydroxycyclohexyl]-4-methyl-3-({[1-(pyridin-2-yl)-1H-pyrazol-4-yl]methyl}amino)benzamide]	7.41	8.89	7.59	6.60	
Cc1ccc(C(=O)N[C@H]2CCCC[C@@H]2O)cc1N[C@@H](C)c1cncc(C#Cc2ccccc2)c1 [Example 86, N-[(1S,2S)-2-hydroxycyclohexyl]-4-methyl-3-({(1S)-1-[5-(phenylethynyl)pyridin-3-yl]ethyl}amino)benzamide]	6.64	7.38	6.55	5.77	
Cc1c(F)cc(C(=O)N[C@H]2CCCC[C@@H]2O)cc1NCc1cncc(-c2ncccn2)c1 [Example 106, 3-fluoro-N-[(1S,2S)-2-hydroxycyclohexyl]-4-methyl-5-({[5-(pyrimidin-2-yl)pyridin-3-yl]methyl}amino)benzamide]	7.17	8.68	6.85	5.89	
Cc1ccc(C(=O)N[C@H]2CCCC[C@@H]2O)cc1NCc1cncc(C#CC2CC2)c1 [Example 94, 3-({[5-(cyclopropylethynyl)pyridin-3-yl]methyl}amino)-N-[(1S,2S)-2-hydroxycyclohexyl]-4-methylbenzamide]	7.31	8.00	7.05	6.59	
Cc1ccc(C(=O)N[C@H]2CCCC[C@@H]2O)cc1NC(=O)c1cncc(/C=C/C2CC2)c1 [Example 15, 5-[(E)-2-cyclopropylethenyl]-N-(5-{[(1S,2S)-2-hydroxycyclohexyl]carbamoyl}-2-methylphenyl)pyridine-3-carboxamide]	7.96	8.41		6.48	7.74
Cc1ccc(C(=O)N[C@H]2CCCC[C@@H]2O)cc1CNc1cncc(-c2ccccn2)c1 [Example 148, 3-{[([2,3′-bipyridin]-5′-yl)amino]methyl}-N-[(1S,2S)-2-hydroxycyclohexyl]-4-methylbenzamide]	7.80	8.62	6.96	6.77	
Cc1ccc(C(=O)N[C@H]2CCCC[C@@H]2O)cc1NC(=O)c1cncc(-c2ccc(C(F)(F)F)cc2)c1 [Example 21, N-(5-{[(1S,2S)-2-hydroxycyclohexyl]carbamoyl}-2-methylphenyl)-5-[4-(trifluoromethyl)phenyl]pyridine-3-carboxamide]	7.14	7.22		5.70	6.85
Cc1ccc(C(=O)N[C@H]2CCCC[C@@H]2O)cc1NC(=O)c1cncc(OCC2CC2)c1 [Example 24, 5-(cyclopropylmethoxy)-N-(5-{[(1S,2S)-2-hydroxycyclohexyl]carbamoyl}-2-methylphenyl)pyridine-3-carboxamide]	7.19	7.96		5.92	6.96
COc1ccc(-c2cncc(C(=O)Nc3cc(C(=O)N[C@H]4CCCC[C@@H]4O)ccc3C)c2)c(F)c1 [Example 33, 5-(2-fluoro-4-methoxyphenyl)-N-(5-{[(1S,2S)-2-hydroxycyclohexyl]carbamoyl}-2-methylphenyl)pyridine-3-carboxamide]	7.72	7.10	7.17	6.06	
Cc1ccc(C(=O)N[C@H]2CCCC[C@@H]2O)cc1NC(=O)c1cncc(-c2ccccc2)c1 [Example 2, N-(5-{[(1S,2S)-2-hydroxycyclohexyl]carbamoyl}-2-methylphenyl)-5-phenylpyridine-3-carboxamide]	7.66	8.44		6.70	7.64
Cc1ccc(C(=O)N[C@H]2CCCC[C@@H]2O)cc1NC(=O)c1cnc(NC(C)C)s1 [Example 27, N-(5-{[(1S,2S)-2-hydroxycyclohexyl]carbamoyl}-2-methylphenyl)-2-[(propan-2-yl)amino]-1,3-thiazole-5-carboxamide]	8.08	8.06		6.00	7.15
CCCc1ncc(C(=O)Nc2cc(C(=O)N[C@H]3CCCC[C@@H]3O)ccc2C)s1 [Example 10, N-(5-{[(1S,2S)-2-hydroxycyclohexyl]carbamoyl}-2-methylphenyl)-2-propyl-1,3-thiazole-5-carboxamide]	6.66	7.60		6.18	6.85
Cc1ccc(C(=O)N[C@H]2CCCC[C@@H]2O)cc1NC(=O)c1cnc(NCC2CC2)s1 [Example 8, 2-[(cyclopropylmethyl)amino]-N-(5-{[(1S,2S)-2-hydroxycyclohexyl]carbamoyl}-2-methylphenyl)-1,3-thiazole-5-carboxamide]	8.22	8.01		6.19	6.96
Cc1ccc(C(=O)N[C@H]2CCCC[C@@H]2O)cc1NCc1cnn2ccsc12 [Example 105, N-[(1S,2S)-2-hydroxycyclohexyl]-4-methyl-3-{[(pyrazolo[5,1-b][1,3]thiazol-7-yl)methyl]amino}benzamide]	6.64	8.33	7.55	6.04	
Cc1ccc(C(=O)N[C@H]2CCCC[C@@H]2O)cc1NCc1cncc(-c2ncccn2)c1 [Example 95, N-[(1S,2S)-2-hydroxycyclohexyl]-4-methyl-3-({[5-(pyrimidin-2-yl)pyridin-3-yl]methyl}amino)benzamide]	6.92	8.24	7.02	6.00	
Cc1ccc(C(=O)N[C@H]2CCCC[C@@H]2O)cc1C#Cc1cncc(-c2ccccn2)c1 [Example 66, 3-[([2,3′-bipyridin]-5′-yl)ethynyl]-N-[(1S,2S)-2-hydroxycyclohexyl]-4-methylbenzamide]	8.27	8.60	7.52	7.00	
